Residue numbers refer to the chain shown, from its start.

% of control data for one molecule are collected here from ChEMBL document CHEMBL5465560, “Selectivity Literature for EUbOPEN Chemogenomic Library” (2024).

Settings in all cases: at 1 µM
In experiment [1] the test system is T1, Receptor-type tyrosine-protein kinase FLT3 (Homo sapiens), P36888 [D835H].
T1 sequence (whole entry): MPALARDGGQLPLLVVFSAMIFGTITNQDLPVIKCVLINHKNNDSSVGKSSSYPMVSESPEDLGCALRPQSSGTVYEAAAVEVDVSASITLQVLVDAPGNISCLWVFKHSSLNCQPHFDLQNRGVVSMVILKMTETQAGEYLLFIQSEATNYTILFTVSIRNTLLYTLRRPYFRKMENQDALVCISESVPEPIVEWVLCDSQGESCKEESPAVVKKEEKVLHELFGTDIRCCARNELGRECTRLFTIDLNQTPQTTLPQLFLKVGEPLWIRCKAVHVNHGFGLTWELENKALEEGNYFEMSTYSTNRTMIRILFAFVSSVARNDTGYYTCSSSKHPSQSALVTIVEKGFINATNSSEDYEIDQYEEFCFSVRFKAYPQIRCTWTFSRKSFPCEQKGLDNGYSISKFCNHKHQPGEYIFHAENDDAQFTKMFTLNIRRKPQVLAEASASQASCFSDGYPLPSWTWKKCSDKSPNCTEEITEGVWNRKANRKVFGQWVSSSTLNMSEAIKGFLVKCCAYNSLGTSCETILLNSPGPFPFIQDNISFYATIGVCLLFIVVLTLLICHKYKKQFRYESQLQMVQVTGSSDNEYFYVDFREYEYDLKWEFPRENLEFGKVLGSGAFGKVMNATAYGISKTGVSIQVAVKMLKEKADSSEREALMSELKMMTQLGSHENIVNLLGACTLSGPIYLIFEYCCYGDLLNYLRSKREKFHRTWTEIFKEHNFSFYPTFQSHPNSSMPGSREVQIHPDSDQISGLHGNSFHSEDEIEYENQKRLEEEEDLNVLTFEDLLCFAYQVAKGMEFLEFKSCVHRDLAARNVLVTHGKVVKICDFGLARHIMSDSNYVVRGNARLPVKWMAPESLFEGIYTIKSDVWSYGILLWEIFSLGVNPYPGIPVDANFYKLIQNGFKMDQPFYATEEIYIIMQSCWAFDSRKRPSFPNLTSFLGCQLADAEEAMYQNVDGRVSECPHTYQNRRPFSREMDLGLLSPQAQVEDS
The experiment can be described thus: (§1) Selectivity interaction (KinomeScan (DiscoverX)) EUB0001619a FLT3.

Experiment [2] relates to T2, Receptor-type tyrosine-protein kinase FLT3 (Homo sapiens), P36888 [K663Q].
T2 sequence (whole entry): T1 sequence (whole entry) with K663Q, H835D
Described as §1.

The subject of experiment [3] is T3, Receptor-type tyrosine-protein kinase FLT3 (Homo sapiens), P36888 [N841I].
T3 sequence (whole entry): T1 sequence (whole entry) with H835D, N841I
The description is as §1.

The subject of experiment [4] is Receptor-type tyrosine-protein kinase FLT3 (Homo sapiens), P36888 [UNDEFINED MUTATION]. The description is as §1.

With `N#Cc1cccc(-c2c[nH]c3ncnc(N4CCOCC4)c23)c1`, the % of control in experiment [1] is 72%; in experiment [2], 71%; in experiment [3], 100%; in experiment [4] it was 100%.
